Test results taken from PubChem BioAssay AID1259407 (Chemical Carcinogenesis Research Information System (CCRIS), 2018).
Calls of active or inactive are those of the source. How the calls were made is not given here.

System: CCRIS mutagenicity, Ames/micronucleus/aberration tests
Assay: CCRIS mutagenicity studies
[1] = Test System: AMES SALMONELLA TYPHIMURIUM, Strain/Indicator: TA98, Metabolic Activation: HAMSTER, LIVER, S-9, AROCLOR 1254, Method: STANDARD PLATE
[2] = Test System: AMES SALMONELLA TYPHIMURIUM, Strain/Indicator: TA98, Metabolic Activation: NONE, Method: STANDARD PLATE
[3] = Test System: AMES SALMONELLA TYPHIMURIUM, Strain/Indicator: TA98, Metabolic Activation: RAT, LIVER, S-9, AROCLOR 1254, Method: STANDARD PLATE
[4] = Test System: AMES SALMONELLA TYPHIMURIUM, Strain/Indicator: TA100, Metabolic Activation: HAMSTER, LIVER, S-9, AROCLOR 1254, Method: STANDARD PLATE
[5] = Test System: AMES SALMONELLA TYPHIMURIUM, Strain/Indicator: TA100, Metabolic Activation: NONE, Method: STANDARD PLATE
[6] = Test System: AMES SALMONELLA TYPHIMURIUM, Strain/Indicator: TA100, Metabolic Activation: RAT, LIVER, S-9, AROCLOR 1254, Method: STANDARD PLATE
[7] = Test System: AMES SALMONELLA TYPHIMURIUM, Strain/Indicator: TA1535, Metabolic Activation: HAMSTER, LIVER, S-9, AROCLOR 1254, Method: STANDARD PLATE
[8] = Test System: AMES SALMONELLA TYPHIMURIUM, Strain/Indicator: TA1535, Metabolic Activation: NONE, Method: STANDARD PLATE
[9] = Test System: AMES SALMONELLA TYPHIMURIUM, Strain/Indicator: TA1535, Metabolic Activation: RAT, LIVER, S-9, AROCLOR 1254, Method: STANDARD PLATE
[10] = Test System: AMES SALMONELLA TYPHIMURIUM, Strain/Indicator: TA1537, Metabolic Activation: HAMSTER, LIVER, S-9, AROCLOR 1254, Method: STANDARD PLATE
[11] = Test System: AMES SALMONELLA TYPHIMURIUM, Strain/Indicator: TA1537, Metabolic Activation: NONE, Method: STANDARD PLATE
[12] = Test System: AMES SALMONELLA TYPHIMURIUM, Strain/Indicator: TA1537, Metabolic Activation: RAT, LIVER, S-9, AROCLOR 1254, Method: STANDARD PLATE
[13] = Test System: AMES SALMONELLA TYPHIMURIUM, Strain/Indicator: TA1538, Metabolic Activation: HAMSTER, LIVER, S-9, AROCLOR 1254, Method: STANDARD PLATE
[14] = Test System: AMES SALMONELLA TYPHIMURIUM, Strain/Indicator: TA1538, Metabolic Activation: NONE, Method: STANDARD PLATE
[15] = Test System: AMES SALMONELLA TYPHIMURIUM, Strain/Indicator: TA1538, Metabolic Activation: RAT, LIVER, S-9, AROCLOR 1254, Method: STANDARD PLATE
[16] = Test System: MOUSE LYMPHOMA, Strain/Indicator: L5178Y (TK+/TK-), Metabolic Activation: NONE, Method: SUSPENSION/PLATE
[17] = Test System: MOUSE LYMPHOMA, Strain/Indicator: L5178Y (TK+/TK-), Metabolic Activation: RAT, LIVER, S-9, AROCLOR 1254, Method: SUSPENSION/PLATE

## OCCCc1ccccc1
[1]
  mutagenic call: inactive; negative
[2]
  mutagenic call: inactive; negative
[3]
  mutagenic call: inactive; negative
[4]
  mutagenic call: inactive; negative
[5]
  mutagenic call: inactive; negative
[6]
  mutagenic call: inactive; negative
[7]
  mutagenic call: inactive; negative
[8]
  mutagenic call: inactive; negative
[9]
  mutagenic call: inactive; negative
[10]
  mutagenic call: inactive; negative
[11]
  mutagenic call: inactive; negative
[12]
  mutagenic call: inactive; negative
[13]
  mutagenic call: inactive; negative
[14]
  mutagenic call: inactive; negative
[15]
  mutagenic call: inactive; negative
[16]
  mutagenic call: inactive; negative. reevaluation of results: negative
[17]
  mutagenic call: inactive; negative. reevaluation of results: negative

## Clc1nc2ccccc2nc1Cl
Test System: AMES SALMONELLA TYPHIMURIUM, Strain/Indicator: TA98, Metabolic Activation: HAMSTER, LIVER, S-9, AROCLOR 1254 (10%), Method: PREINCUBATION
  mutagenic call: inactive; negative
[1]
  mutagenic call: inactive; negative
Test System: AMES SALMONELLA TYPHIMURIUM, Strain/Indicator: TA98, Metabolic Activation: NONE, Method: PREINCUBATION
  mutagenic call: inactive; negative
[2]
  mutagenic call: inactive; negative
Test System: AMES SALMONELLA TYPHIMURIUM, Strain/Indicator: TA98, Metabolic Activation: RAT, LIVER, S-9, AROCLOR 1254 (10%), Method: PREINCUBATION
  mutagenic call: inactive; negative
[3]
  mutagenic call: inactive; negative
Test System: AMES SALMONELLA TYPHIMURIUM, Strain/Indicator: TA100, Metabolic Activation: HAMSTER, LIVER, S-9, AROCLOR 1254 (10%), Method: PREINCUBATION
  mutagenic call: inactive; negative
[4]
  mutagenic call: inactive; negative
Test System: AMES SALMONELLA TYPHIMURIUM, Strain/Indicator: TA100, Metabolic Activation: NONE, Method: PREINCUBATION
  mutagenic call: inactive; negative
[5]
  mutagenic call: inactive; negative
Test System: AMES SALMONELLA TYPHIMURIUM, Strain/Indicator: TA100, Metabolic Activation: RAT, LIVER, S-9, AROCLOR 1254 (10%), Method: PREINCUBATION
  mutagenic call: inactive; negative
[6]
  mutagenic call: inactive; negative
Test System: AMES SALMONELLA TYPHIMURIUM, Strain/Indicator: TA1535, Metabolic Activation: HAMSTER, LIVER, S-9, AROCLOR 1254 (10%), Method: PREINCUBATION
  mutagenic call: inactive; negative
[7]
  mutagenic call: inactive; negative
Test System: AMES SALMONELLA TYPHIMURIUM, Strain/Indicator: TA1535, Metabolic Activation: NONE, Method: PREINCUBATION
  mutagenic call: inactive; negative
[8]
  mutagenic call: inactive; negative
Test System: AMES SALMONELLA TYPHIMURIUM, Strain/Indicator: TA1535, Metabolic Activation: RAT, LIVER, S-9, AROCLOR 1254 (10%), Method: PREINCUBATION
  mutagenic call: inactive; negative
[9]
  mutagenic call: inactive; negative
Test System: AMES SALMONELLA TYPHIMURIUM, Strain/Indicator: TA1537, Metabolic Activation: HAMSTER, LIVER, S-9, AROCLOR 1254 (10%), Method: PREINCUBATION
  mutagenic call: inactive; negative
[10]
  mutagenic call: inactive; negative
Test System: AMES SALMONELLA TYPHIMURIUM, Strain/Indicator: TA1537, Metabolic Activation: NONE, Method: PREINCUBATION
  mutagenic call: inactive; negative
[11]
  mutagenic call: inactive; negative
Test System: AMES SALMONELLA TYPHIMURIUM, Strain/Indicator: TA1537, Metabolic Activation: RAT, LIVER, S-9, AROCLOR 1254 (10%), Method: PREINCUBATION
  mutagenic call: inactive; negative
[12]
  mutagenic call: inactive; negative
[13]
  mutagenic call: inactive; negative
[14]
  mutagenic call: inactive; negative
[15]
  mutagenic call: inactive; negative
[16]
  mutagenic call: active; positive. reevaluation of results: equivocal
[17]
  mutagenic call: active; positive. reevaluation of results: positive

## Clc1cc(Cl)nc(Cl)n1
[1]
  mutagenic call: inactive; negative
[2]
  mutagenic call: inactive; negative
[3]
  mutagenic call: inactive; negative
[4]
  mutagenic call: inactive; negative
[5]
  mutagenic call: inactive; negative
[6]
  mutagenic call: inactive; negative
[7]
  mutagenic call: inactive; negative
[8]
  mutagenic call: inactive; negative
[9]
  mutagenic call: inactive; negative
[10]
  mutagenic call: inactive; negative
[11]
  mutagenic call: inactive; negative
[12]
  mutagenic call: inactive; negative
[13]
  mutagenic call: inactive; negative
[14]
  mutagenic call: inactive; negative
[15]
  mutagenic call: inactive; negative
Test System: Mouse lymphoma, Strain/Indicator: L5178Y (tk+/tk-), Metabolic Activation: None, Method: Suspension/plate
  mutagenic call: active; inconclusive (previous evaluation positive)
Test System: Mouse lymphoma, Strain/Indicator: L5178Y (tk+/tk-), Metabolic Activation: Rat, Liver, S-9, Aroclor 1254, Method: Suspension/plate
  mutagenic call: active; positive
